In test [1] the test system is MLKL phosphorylation in HT29-L23 human colorectal adenocarcinoma cells. Briefly: MLKL Phosphorylation High-Content Assay. Type of test: cell-based. The settings on record: Homo sapiens, 6 h, necroptosis induced with TNFα, SMAC mimetic and Z-VAD, read-out: pMLKL (IC50). The essentials:
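HT29-L23 cells pretreated 30 min at 37 °C with compound (6.25 to 0.106 μM final), then necroptosis induced with TNFα 35 ng/mL, SMAC mimetic 700 nM and Z-VAD 140 nM for 6 h. Fixed cells immunostained for MLKL pS358 and imaged; IC50 and Ymax from 4-parameter logistic fit.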

In test [2] the target is His-GST-TVMV-hRIPK1(1-324) (Homo sapiens (Human), UniProt Q13546). In words: RIPK1 HTRF Binding Assay. Conditions: HTRF binding, 1 h at rt; read-out: RIPK1 (IC50). The essentials: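 HTRF probe-displacement binding: 1 nM His-GST-TVMV-hRIPK1(1-324) (baculovirus construct), 90.6 nM probe, 0.2 nM anti-GST-Tb in 20 mM HEPES, 10 mM MgCl2, 0.015% Brij-35, 4 mM DTT, 0.05 mg/mL BSA. Incubated 1 h at rt; FRET 520/495 nm ratio, inhibition relative to DMSO-only wells.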
Chain of His-GST-TVMV-hRIPK1(1-324) (Q13546 1-324): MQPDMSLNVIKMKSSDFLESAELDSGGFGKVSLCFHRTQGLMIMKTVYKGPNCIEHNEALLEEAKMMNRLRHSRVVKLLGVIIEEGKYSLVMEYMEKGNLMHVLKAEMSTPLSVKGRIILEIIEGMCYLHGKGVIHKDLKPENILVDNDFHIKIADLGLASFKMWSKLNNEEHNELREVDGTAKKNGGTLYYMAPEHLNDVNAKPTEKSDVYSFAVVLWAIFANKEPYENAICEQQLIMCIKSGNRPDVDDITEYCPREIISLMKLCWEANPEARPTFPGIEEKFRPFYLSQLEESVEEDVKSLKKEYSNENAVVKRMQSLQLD

Turning to `Cc1ncc(-c2ccc3nc(NC(=O)CN)cn3n2)cc1C(=O)N[C@H](C)c1cc(OC(F)(F)F)ccc1F` [Example 341, 5-[2-(2-aminoacetamido)-imidazo[1,2-b]pyridazin-6-yl]-N-[(1R)-1-[2-fluoro-5-(trifluoromethoxy)-phenyl]ethyl]-2-methylpyridine-3-carboxamide], the IC50 is 492 nM in test [1] and 91 nM in test [2].
In the case of `CC(=O)OCC(=O)Nc1cn2nc(-c3cnc(C)c(C(=O)N[C@H](C)c4cc(OC(F)(F)F)ccc4F)c3)ccc2n1` [Example 342, {[6-(5-{[(1R)-1-[2-fluoro-5-(trifluoromethoxy)-phenyl]ethyl]-carbamoyl}-6-methylpyridin-3-yl)imidazo[1,2-b]pyridazin-2-yl]carbamoyl}-methyl acetate], the IC50 in test [1] stood at 142 nM; in test [2], 13 nM.
Turning to `Cc1ncc(-c2ccc3nc(NC(=O)CN4CCC(F)(F)CC4)cn3n2)cc1C(=O)NCC[C@@H](O)c1ccc(Cl)cc1` [Example 343, N-[(3R)-3-(4-chlorophenyl)-3-hydroxypropyl]-5-{2-[2-(4,4-difluoropiperidin-1-yl)acetamido]imidazo[1,2-b]pyridazin-6-yl}-2-methylpyridine-3-carboxamide], the IC50 in test [1] came to 24 nM; in test [2] it was 9 nM.
In the case of `Cc1ncc(-c2ccc3nc(NC(=O)CN4CC(F)(F)C4)cn3n2)cc1C(=O)NCC[C@@H](O)c1ccc(Cl)cc1` [Example 344, N-[(3R)-3-(4-chlorophenyl)-3-hydroxypropyl]-5-{2-[2-(3,3-difluoroazetidin-1-yl)acetamido]imidazo[1,2-b]pyridazin-6-yl}-2-methylpyridine-3-carboxamide], the results for the half-inhibitory concentration (IC50) in test [1] and in test [2] were 37 nM and 266 nM, respectively.
The matching figures for `Cc1ncc(-c2ccc3nc(NC(=O)CN(C)C)cn3n2)cc1C(=O)NCC[C@H](O)c1ccc(Cl)cc1` [Example 347, N-[(3S)-3-(4-chlorophenyl)-3-hydroxypropyl]-5-{2-[2-(dimethylamino)-acetamido]-imidazo[1,2-b]pyridazin-6-yl}-2-methylpyridine-3-carboxamide]: 89 nM and 44 nM.
For the molecule `CC(=O)Nc1cn2nc(-c3cnc(C)c(C(=O)Nc4cnn(C(C)c5ccc(F)cc5)c4)c3)ccc2n1` (centres unmarked) [Example 348, 5-{2-acetamidoimidazo[1,2-b]pyridazin-6-yl}-N-{1-[1-(4-fluorophenyl)ethyl]-1H-pyrazol-4-yl}-2-methylpyridine-3-carboxamide], the IC50 in test [1] is 27 nM; in test [2] it was 2 nM.
Regarding `CC(=O)Nc1cn2nc(-c3cnc(C)c(C(=O)Nc4cn(Cc5ccc(Cl)cc5)cn4)c3)ccc2n1` [Example 349, N-{1-[(4-chlorophenyl)methyl]-1H-imidazol-4-yl}-5-{2-acetamidoimidazo[1,2-b]pyridazin-6-yl}-2-methylpyridine-3-carboxamide], the IC50 in test [1] was 424 nM; in test [2], 51 nM.
With `CC(=O)Nc1cn2nc(-c3cnc(C)c(C(=O)Nc4cn(Cc5ccc(F)cc5)cn4)c3)ccc2n1` [Example 350, 5-{2-acetamidoimidazo[1,2-b]pyridazin-6-yl}-N-{1-[(4-fluorophenyl)methyl]-1H-imidazol-4-yl}-2-methylpyridine-3-carboxamide], the IC50 in test [1] was found to be 169 nM; in test [2], 27 nM.
With `CC(=O)Nc1cn2nc(-c3cnc(C)c(C(=O)Nc4cn(Cc5ccccc5)cn4)c3)ccc2n1` [Example 351, N-(1-benzyl-1H-imidazol-4-yl)-5-{2-acetamidoimidazo [1,2-b]pyridazin-6-yl}-2-methylpyridine-3-carboxamide], the IC50 in test [1] is 49 nM; in test [2], 28 nM.
Turning to `CC(=O)Nc1cn2nc(-c3cnc(C)c(C(=O)NCc4cc(-c5cnn(C)c5)ccc4F)c3)ccc2n1` [Example 352, 5-{2-acetamidoimidazo[1,2-b]pyridazin-6-yl}-N-{[2-fluoro-5-(1-methyl-1H-pyrazol-4-yl)phenyl]methyl}-2-methylpyridine-3-carboxamide], the IC50 in test [1] was found to be 394 nM; in test [2] it was 125 nM.

What is called IC50 is the point on the concentration scale where inhibition reaches its midpoint.

The record behind these values is patent US11440913B2, “Aminoimidazopyridazines as kinase inhibitors” (BRISTOL-MYERS SQUIBB COMPANY, priority 2017, dated 2022).
